Values of other authors as cited in US9636407B2, “Caspofungin acetate formulations” (priority 2012, dated 2017).

Columns and labels:
[1] = CANCIDAS prescribing information
[2] = background statement

In the case of “1-[(4R,5S)-5-[(2-aminoethyl)amino]-N^2-(10,12-dimethyl-1-oxotetradecyl)-4-hydroxy-L-ornithine]-5-[(3R)-3-hydroxy-L-ornithine]pneumocandin B0 diacetate (salt) [caspofungin acetate]”, the “pH of a saturated solution in water” value [1] is given as “about 6.6” and the oral bioavailability [2] is given as “poor”.
